According to US12448369B2 (Edgewise Therapeutics, Inc., priority 2023, dated 2025):

Columns and labels:
[1] = system: Rabbit Psoas myofibrils (skeletal myosin ATPase); assay: Myofibril ATPase assay, rabbit psoas (skeletal) myofibrils; type: biochemical; settings: rabbit psoas myofibrils
Outline: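 Rabbit psoas skeletal myofibrils in PIPES/CaCl2/EGTA pCa buffer, pH 7.0. ATPase rate followed by PK-LDH-coupled NADH loss at 340 nm, read every 1.5–2 min for 75 min. Slopes normalized to vehicle (100%) and fitted to a 4-parameter logistic; values are Y75 (25% inhibition) or Y125 (25% activation) concentrations.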

[2] = system: Porcine atria myofibrils (atrial myosin ATPase); assay: Myofibril ATPase assay, porcine atria myofibrils; type: biochemical; settings: porcine atria myofibrils
Outline: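 Coupled PK-LDH reaction links ADP from myosin ATPase to NADH loss, read at 340 nm every 1.5-2 min for 75 min. Slopes (mAU/min) normalized to vehicle-only wells (100%) and fit to a 4-parameter logistic; Y75 is the concentration cutting activity by 25%, Y125 is reported for activators.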

[3] = target: T1, Porcine ventricle myofibrils (ventricular myosin ATPase) (Sus scrofa, UniProt P79293); assay: Myofibril ATPase assay, porcine ventricle myofibrils; type: biochemical, porcine (Yucatan minipigs); settings: porcine ventricle myofibrils
T1 construct: Myofibrils from porcine cardiac muscle was isolated from the left ventricle of Yucatan minipigs; tissue Exemplar Genetics; host or cells: left ventricle of Yucatan minipigs, myofibrils prepared in house
Outline: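 ATPase activity of porcine left-ventricle myofibrils (Yucatan minipig) was followed through PK-LDH coupling as NADH loss at 340 nm, read every 1.5-2 min for 75 min. Slopes were normalised to vehicle wells and fitted to a 4-parameter logistic model. Values are Y75, the concentration giving a 25% drop in activity, or Y125 for activators.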

[4] = Y75 value (75% activity relative to no compound)
[5] = ‡ Y125 value, not a Y75 value (125% activity relative to no compound)

T1 sequence (P79293 whole entry): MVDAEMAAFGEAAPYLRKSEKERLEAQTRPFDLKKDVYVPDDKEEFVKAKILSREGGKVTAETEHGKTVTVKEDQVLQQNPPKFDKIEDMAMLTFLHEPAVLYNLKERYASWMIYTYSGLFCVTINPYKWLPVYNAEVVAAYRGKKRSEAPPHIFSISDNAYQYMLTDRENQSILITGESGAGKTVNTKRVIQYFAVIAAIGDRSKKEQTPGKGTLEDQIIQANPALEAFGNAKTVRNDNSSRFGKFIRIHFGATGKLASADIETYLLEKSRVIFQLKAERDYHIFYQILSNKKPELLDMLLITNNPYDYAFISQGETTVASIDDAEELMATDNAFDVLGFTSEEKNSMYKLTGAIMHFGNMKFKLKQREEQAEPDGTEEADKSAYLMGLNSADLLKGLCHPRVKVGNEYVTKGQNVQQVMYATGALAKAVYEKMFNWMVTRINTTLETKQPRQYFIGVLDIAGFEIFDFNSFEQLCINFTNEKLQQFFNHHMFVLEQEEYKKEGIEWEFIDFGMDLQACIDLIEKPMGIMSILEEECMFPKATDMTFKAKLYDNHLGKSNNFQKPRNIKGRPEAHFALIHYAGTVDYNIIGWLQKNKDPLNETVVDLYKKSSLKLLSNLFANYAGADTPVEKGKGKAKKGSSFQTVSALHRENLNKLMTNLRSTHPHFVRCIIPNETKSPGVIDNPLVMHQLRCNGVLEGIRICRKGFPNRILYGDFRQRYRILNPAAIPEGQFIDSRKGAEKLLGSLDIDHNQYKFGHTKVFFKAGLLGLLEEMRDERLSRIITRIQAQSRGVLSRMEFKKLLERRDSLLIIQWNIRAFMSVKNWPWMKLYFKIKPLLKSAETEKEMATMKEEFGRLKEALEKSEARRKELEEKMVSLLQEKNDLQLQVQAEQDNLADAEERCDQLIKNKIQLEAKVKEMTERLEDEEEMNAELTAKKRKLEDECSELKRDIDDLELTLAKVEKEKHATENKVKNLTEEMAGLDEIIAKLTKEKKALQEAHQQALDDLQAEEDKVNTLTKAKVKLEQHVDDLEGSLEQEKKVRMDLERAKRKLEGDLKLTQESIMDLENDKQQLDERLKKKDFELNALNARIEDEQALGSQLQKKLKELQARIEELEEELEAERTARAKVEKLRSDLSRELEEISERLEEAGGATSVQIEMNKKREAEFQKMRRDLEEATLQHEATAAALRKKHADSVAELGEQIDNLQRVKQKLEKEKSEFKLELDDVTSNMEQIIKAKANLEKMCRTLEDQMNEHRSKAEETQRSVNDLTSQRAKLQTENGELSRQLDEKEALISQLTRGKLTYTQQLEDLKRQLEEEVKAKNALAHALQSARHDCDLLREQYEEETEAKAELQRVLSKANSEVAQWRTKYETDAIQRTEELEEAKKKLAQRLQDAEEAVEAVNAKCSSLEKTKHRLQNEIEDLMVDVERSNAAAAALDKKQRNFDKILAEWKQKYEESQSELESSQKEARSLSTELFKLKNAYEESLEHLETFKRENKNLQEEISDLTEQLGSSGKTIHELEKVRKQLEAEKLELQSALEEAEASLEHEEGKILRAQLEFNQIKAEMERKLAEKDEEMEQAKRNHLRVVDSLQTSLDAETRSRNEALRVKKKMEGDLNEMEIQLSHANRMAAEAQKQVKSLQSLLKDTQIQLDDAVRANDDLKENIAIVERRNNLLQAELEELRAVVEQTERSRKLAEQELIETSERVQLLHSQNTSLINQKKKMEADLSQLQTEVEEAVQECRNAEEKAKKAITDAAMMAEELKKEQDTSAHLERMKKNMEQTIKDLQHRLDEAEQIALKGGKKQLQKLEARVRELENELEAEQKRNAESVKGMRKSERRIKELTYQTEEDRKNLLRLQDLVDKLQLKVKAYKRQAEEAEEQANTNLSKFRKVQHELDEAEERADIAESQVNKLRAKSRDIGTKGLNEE

| SMILES | Skeletal EC25 ([1]; Y75 value (no ‡ mark)) | Atrial EC25 ([2]; Y75 value (no ‡ mark)) | Ventricular EC25 ([3]; Y75 value (no ‡ mark)) | Skeletal EC25 ([1]; Y75 value) | Atrial EC25 [2, 4] | Ventricular EC25 ([3]; Y75 value) | further results |
| --- | --- | --- | --- | --- | --- | --- | --- |
| Cc1nc(C#N)cnc1[C@@H](C)NC(=O)Cc1cc2cc(F)c(F)cc2[nH]c1=O (single isomer, unassigned) [compound 5] | 3.60 µM | 1.45 µM | 4.13 µM |  |  |  |  |
| Cc1nccc2[nH]c(=O)c([C@@H](C)C(=O)N[C@@H](C)c3ccc(F)cc3F)c(C)c12 (single isomer, unassigned) [compound 399] |  |  |  | 0.30 µM | 0.91 µM | 18.33 µM |  |
| C[C@H](NC(=O)Cc1c(C(F)(F)F)c2cnccc2[nH]c1=O)c1ccc(F)cc1F [compound 447] |  |  |  | 0.05 µM | 0.25 µM | 10.16 µM |  |
| Cc1nccc2[nH]c(=O)c([C@H](C)C(=O)N[C@@H](C)c3ccc(F)cc3F)cc12 (single isomer, unassigned) [compound 442] |  |  |  | 12.41 µM | 100.00 µM | 100.00 µM |  |
| C[C@H](NC(=O)C(F)(F)c1cc2c(F)c(F)ccc2[nH]c1=O)c1ncc(C#N)cn1 (single isomer, unassigned) [compound 2546] | 0.19 µM | 0.20 µM | 1.23 µM |  |  |  |  |
| Cc1c(CC(=O)N[C@@H](C)c2ncc(C3COC3)cn2)c(=O)[nH]c2ccc(F)c(F)c12 (single isomer, unassigned) [compound 2044] | 29.36 µM | 9.19 µM | 5.84 µM |  |  |  |  |
| Cc1c(C2(C(=O)N[C@@H]3CCc4cc(C#N)cnc43)CC2)c(=O)[nH]c2ccc(F)cc12 (single isomer, unassigned) [compound 2503] | 100.00 µM | 100.00 µM | 100.00 µM |  |  |  |  |
| C[C@H](NC(=O)Cc1cc2nc(F)ccc2[nH]c1=O)c1ccc(F)cc1F [compound 392] |  |  |  | 0.07 µM | 0.13 µM | 2.65 µM |  |
| COc1ccc2[nH]c(=O)c(CC(=O)N[C@@H](C)c3ccc(F)cc3F)c(C)c2c1C#N [compound 1153] | 0.66 µM | 0.89 µM | 2.86 µM |  |  |  |  |
| C[C@H](NC(=O)Cc1cc2c(C#N)c(O)ccc2[nH]c1=O)c1ccc(F)cc1F [compound 82] | 100.00 µM | 100.00 µM | 100.00 µM |  |  |  |  |
| Cc1nnccc1[C@H](C)NC(=O)Cc1c(C)c2cc(F)ccc2[nH]c1=O [compound 1091] | 100.00 µM | 53.30 µM | 80.11 µM |  |  |  |  |
| Cc1c([C@@H](C)C(=O)N[C@@H](C)c2ccc(C#N)cc2F)c(=O)[nH]c2ccnc(C#N)c12 (single isomer, unassigned) [compound 173] |  |  |  | 0.02 µM | 0.22 µM | 0.30 µM |  |
| Cc1c(CC(=O)N[C@H](C)c2ncc(C#N)cn2)c(=O)[nH]c2ccc(F)cc12 [compound 1070] | 2.50 µM | 0.22 µM | 1.72 µM |  |  |  |  |
| Cc1c([C@@H](C)C(=O)N[C@H](C)c2ncc(C#N)cc2F)c(=O)[nH]c2ccc(F)c(F)c12 (relative stereo) [compound 2600, Rel-(2R*)-N-[(1R)-1-(5-cyano-3-fluoropyridin-2-yl)ethyl]-2-(5,6-difluoro-4-methyl-2-oxo-1H-quinolin-3-yl) propanamide] | 100.00 µM | 0.67 µM | 100.00 µM |  |  |  |  |
| C[C@H](NC(=O)C1(c2cc3c(F)c(F)ccc3[nH]c2=O)CC1)c1cnc(C#N)cn1 (single isomer, unassigned) [compound 4830] | 1.34 µM | 0.46 µM | 100.00 µM |  |  |  |  |
| COC[C@H](NC(=O)Cc1c(C)c2c(C#N)nccc2[nH]c1=O)c1ncc(F)cc1F [compound 160] |  |  |  | 0.03 µM | 0.13 µM | 2.23 µM |  |
| Cc1c(CC(=O)N[C@H](C)c2ncc(C#N)cc2F)c(=O)[nH]c2ccc(F)c(C#N)c12 [compound 31] | 0.06 µM | 0.10 µM | 0.16 µM |  |  |  |  |
| Cc1nccc2[nH]c(=O)c([C@@H](C)C(=O)N[C@@H](C)c3ccc(F)cc3F)c(C(F)(F)F)c12 (single isomer, unassigned) [compound 410] |  |  |  | 0.76 µM | 5.46 µM | 100.00 µM |  |
| Cc1c(C2(C(=O)N[C@H](C)c3nccc(C#N)n3)CC2)c(=O)[nH]c2ccc(F)c(F)c12 (single isomer, unassigned) [compound 2509] |  |  |  |  |  |  | Skeletal EC25 [1, 5]: 94.41‡ μM; Atrial EC25 [2, 5]: 100.00‡ μM; Ventricular EC25 [3, 5]: 77.92‡ μM |

| SMILES | Skeletal EC25 ([1]; Y75 value (no ‡ mark)) | Atrial EC25 ([2]; Y75 value (no ‡ mark)) | Ventricular EC25 ([3]; Y75 value (no ‡ mark)) | Skeletal EC25 ([1]; Y75 value) | Atrial EC25 [2, 4] | Ventricular EC25 ([3]; Y75 value) | further results |
| --- | --- | --- | --- | --- | --- | --- | --- |
| CCc1nccc2[nH]c(=O)c(CC(=O)N[C@@H](C)c3ccc(F)cc3F)cc12 [compound 437] |  |  |  | 1.28 µM | 91.43 µM | 100.00 µM |  |
| Cc1cccc2[nH]c(=O)c(CC(=O)N[C@@H](C)c3ccc(C#N)cn3)c(C#N)c12 [compound 1111] | 0.26 µM | 0.49 µM | 2.28 µM |  |  |  |  |
| Cc1c(CC(=O)N[C@@H](C)c2ccc(C#N)cc2F)c(=O)[nH]c2ccc(F)c(C#N)c12 [compound 68] | 0.01 µM | 0.06 µM | 0.07 µM |  |  |  |  |
| Cc1c([C@H](C)C(=O)N[C@@H](C)c2ccc(F)cc2F)c(=O)[nH]c2ccc(C(F)(F)F)nc12 (single isomer, unassigned) [compound 369] |  |  |  | 15.36 µM | 0.29 µM | 60.83 µM |  |
| COC[C@H](NC(=O)Cc1c(C)c2c(C)nccc2[nH]c1=O)c1ccc(C#N)cc1F [compound 169] |  |  |  | 0.15 µM | 1.06 µM | 10.52 µM |  |
| Cc1c(CC(=O)N[C@@H](CO)c2ncc(F)cc2F)c(=O)[nH]c2ccnc(C#N)c12 [compound 262] |  |  |  | 0.13 µM | 0.19 µM | 0.67 µM |  |
| Cc1ccncc1[C@@H](C)NC(=O)Cc1c(C)c2cc(F)ccc2[nH]c1=O [compound 1048] | 2.2 µM | 0.29 µM | 1.73 µM |  |  |  |  |
| C[C@@H](NC(=O)Cc1c(C2CC2)c2cc(F)ccc2[nH]c1=O)c1ccc(C#N)cc1F [compound 73] | 0.02 µM | 100.00 µM | 100.00 µM |  |  |  |  |
| C[C@@H](NC(=O)Cc1cc2c(F)c(F)ccc2[nH]c1=O)c1ncc(F)cc1F [compound 33] | 0.29 µM | 0.17 µM | 0.46 µM |  |  |  |  |
| C[C@H](NC(=O)Cc1c(C2CC2)c2cc(F)ccc2[nH]c1=O)c1ccc(C#N)nn1 (single isomer, unassigned) [compound 2054] | 0.15 µM | 0.23 µM | 3.72 µM |  |  |  |  |
| Cc1c(CC(=O)N[C@@H](C)c2ccc(C#N)cn2)c(=O)[nH]c2cc(F)c(F)cc12 [compound 1113] | 0.47 µM | 0.97 µM | 2.55 µM |  |  |  |  |
| N#Cc1cnc2c(n1)CC[C@@H]2NC(=O)Cc1cc2cc(F)c(F)cc2[nH]c1=O [compound 1083] | 4.15 µM | 5.80 µM | 100.00 µM |  |  |  |  |
| C[C@H](NC(=O)[C@@H](C)c1cc2c(F)nccc2[nH]c1=O)c1ccc(F)cc1F (single isomer, unassigned) [compound 367] |  |  |  | 0.29 µM | 2.23 µM | 36.08 µM |  |
| Cc1nccc2[nH]c(=O)c(CC(=O)N[C@@H](C)c3cnc(C#N)cn3)c(C)c12 [compound 487] |  |  |  | 3.42 µM | 100.00 µM | 3.42 µM |  |
| C[C@H](NC(=O)Cc1c(C2CC2)c2cc(F)ccc2[nH]c1=O)c1ncc(C#N)cn1 (single isomer, unassigned) [compound 2064] | 0.26 µM | 77.71 µM | 32.11 µM |  |  |  |  |
| Cc1c(CC(=O)N[C@@H](C)c2ncc(C#N)cc2F)c(=O)[nH]c2ccc(F)cc12 [compound 1107] | 0.03 µM | 0.12 µM | 0.15 µM |  |  |  |  |
| Cc1c(O)ccc2[nH]c(=O)c(CC(=O)N[C@H](C)c3ncc(F)cc3F)cc12 (single isomer, unassigned) [compound 77] | 47.84 µM | 100.00 µM | 100.00 µM |  |  |  |  |
| C[C@H](NC(=O)Cc1c(C2CC2)c2cc(F)ccc2[nH]c1=O)c1ccc(C#N)cn1 [compound 56] | 0.12 µM | 2.47 µM | 3.98 µM |  |  |  |  |
